For series [1], the system named is Rattus norvegicus. The experiment in a line: In-vivo agonist activity at FXR in orally dosed Han Wistar rat assessed as repression of CYP7a1 mRNA level in liver administered via oral gavage once daily for 14 days measured post last dose by qRT-PCR analysis. Format: functional, organism-based.
A short description of series [2]: Oral bioavailability in Wistar rat at 10 mg/kg in presence of PEG 300/D5W(3:1). Format: ADME, organism-based. The settings on record: in vivo.
Series [3] has as its system Rattus norvegicus. The experiment in a line: In-vivo agonist activity at FXR in orally dosed Han Wistar rat assessed as repression of CYP8b1 mRNA level in liver administered via oral gavage once daily for 14 days measured post last dose by qRT-PCR analysis. The series is classed as functional, organism-based.
Series [4] can be described thus: Oral bioavailability in mouse at 10 mg/kg. The series is classed as ADME, organism-based. The conditions noted are these: in vivo.
Series [5] concerns Mus musculus. In words: Anti Steato-hepatitic activity in STZ/HFD induced oral dosed C57BL/6J mouse STAM model assessed as reduction in inflammatory cell infiltration administered via oral gavage once daily for 3 weeks and measured on 9 week by H and E staining based assay. Format: functional, organism-based.
Series [6] in a line: Volume of distribution at steady state in mouse at 3 mg/kg, iv. Format: ADME, organism-based. The conditions noted are these: in vivo, read-out: Vdss.
The target of series [7] is T1, Progesterone receptor (Homo sapiens, UniProt P06401).
T1 sequence (P06401 whole entry): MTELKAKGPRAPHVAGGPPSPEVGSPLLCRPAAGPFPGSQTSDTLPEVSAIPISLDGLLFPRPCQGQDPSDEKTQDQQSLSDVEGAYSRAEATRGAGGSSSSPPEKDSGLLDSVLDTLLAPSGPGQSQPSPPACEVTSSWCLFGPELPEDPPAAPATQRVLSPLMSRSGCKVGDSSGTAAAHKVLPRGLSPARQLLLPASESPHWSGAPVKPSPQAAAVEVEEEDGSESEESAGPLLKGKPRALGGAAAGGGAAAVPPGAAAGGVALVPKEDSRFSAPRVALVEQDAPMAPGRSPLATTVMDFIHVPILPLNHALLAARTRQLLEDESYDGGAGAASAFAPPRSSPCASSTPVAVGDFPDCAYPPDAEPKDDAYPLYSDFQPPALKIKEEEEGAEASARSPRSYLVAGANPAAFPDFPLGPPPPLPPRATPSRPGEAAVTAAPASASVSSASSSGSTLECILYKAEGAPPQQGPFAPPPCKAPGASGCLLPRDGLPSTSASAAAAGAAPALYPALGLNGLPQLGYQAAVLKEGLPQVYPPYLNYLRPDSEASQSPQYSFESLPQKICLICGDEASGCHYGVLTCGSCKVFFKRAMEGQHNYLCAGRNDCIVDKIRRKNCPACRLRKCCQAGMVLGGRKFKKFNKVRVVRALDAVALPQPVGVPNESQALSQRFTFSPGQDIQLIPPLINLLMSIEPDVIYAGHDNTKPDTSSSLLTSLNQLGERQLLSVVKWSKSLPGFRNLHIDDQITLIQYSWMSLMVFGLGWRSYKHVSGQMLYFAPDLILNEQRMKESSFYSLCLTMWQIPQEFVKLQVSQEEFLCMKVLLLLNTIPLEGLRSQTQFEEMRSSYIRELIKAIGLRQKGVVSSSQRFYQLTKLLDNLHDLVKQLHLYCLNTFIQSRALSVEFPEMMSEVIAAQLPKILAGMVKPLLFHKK
The experiment in a line: Agonist activity at Progesterone receptor (unknown origin) incubated for 2 hrs by TR-FRET assay.

The nature of series [8]: Terminal half life in orally dosed rat. The settings on record: in vivo, po, read-out: beta t1/2 (converted). The series is classed as ADME, organism-based.
Series [9] concerns the target T2, Bile acid receptor (Homo sapiens, UniProt Q96RI1).
T2 sequence (Q96RI1 whole entry): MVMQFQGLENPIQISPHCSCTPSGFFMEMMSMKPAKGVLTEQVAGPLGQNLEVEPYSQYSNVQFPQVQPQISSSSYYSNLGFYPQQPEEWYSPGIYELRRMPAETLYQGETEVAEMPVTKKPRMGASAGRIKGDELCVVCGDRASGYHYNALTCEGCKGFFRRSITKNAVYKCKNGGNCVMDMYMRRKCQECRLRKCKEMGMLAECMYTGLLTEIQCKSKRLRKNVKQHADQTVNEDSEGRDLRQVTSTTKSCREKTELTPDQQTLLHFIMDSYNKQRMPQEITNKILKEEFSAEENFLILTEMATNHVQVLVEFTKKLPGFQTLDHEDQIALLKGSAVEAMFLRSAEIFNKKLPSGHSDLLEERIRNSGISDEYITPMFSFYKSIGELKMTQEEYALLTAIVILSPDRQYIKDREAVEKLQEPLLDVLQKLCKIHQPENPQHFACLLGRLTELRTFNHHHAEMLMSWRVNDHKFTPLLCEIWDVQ
In words: Agonist activity at FXR transfected in human HEK293T cells o-expressing pGL3/hBSEP/luc incubated for 24 hrs by Steady-Glo reagent based luciferase reporter gene assay. The series is classed as cell-based.

Series [10] can be described thus: Oral bioavailability in Wistar rat at 100 mg/kg in presence of TRIS salt. Format: ADME, organism-based. The settings on record: in vivo.
For series [11], the target named is T3, Bile acid receptor (Rattus norvegicus) (UniProt Q62735).
T3 sequence (whole entry): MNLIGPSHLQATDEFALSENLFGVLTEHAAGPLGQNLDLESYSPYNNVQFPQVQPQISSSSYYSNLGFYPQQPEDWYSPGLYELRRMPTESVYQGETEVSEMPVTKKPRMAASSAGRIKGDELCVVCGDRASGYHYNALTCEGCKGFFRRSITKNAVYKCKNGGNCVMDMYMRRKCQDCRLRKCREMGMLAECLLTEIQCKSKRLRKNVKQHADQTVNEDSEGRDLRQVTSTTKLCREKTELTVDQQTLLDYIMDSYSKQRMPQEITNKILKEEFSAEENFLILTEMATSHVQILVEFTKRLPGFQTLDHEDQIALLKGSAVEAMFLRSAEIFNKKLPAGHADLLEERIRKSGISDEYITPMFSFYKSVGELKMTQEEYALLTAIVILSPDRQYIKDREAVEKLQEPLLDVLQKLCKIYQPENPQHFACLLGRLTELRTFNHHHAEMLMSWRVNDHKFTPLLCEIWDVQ
In words: Agonist activity at FXR in rat primary hepatocytes assessed as increase in SHP mRNA level incubated for 24 hrs by qRT-PCR analysis relative to tropifexor. Format: cell-based.

Series [12] in a line: AUC in Wistar rat at 10 mg/kg, po. Format: ADME, organism-based. The conditions noted are these: in vivo.

Structures are written as SMILES. The source made the active and inactive calls. No cut-off for these calls is given here.

Regarding `Cn1nc(C(=O)N(Cc2ccccc2)Cc2ccc(C(=O)O)cc2)c2c1-c1cc(Cl)ccc1OC2` [NIDUFEXOR], the outcome in series [1] and in series [3] was Active. Besides, the bioavailability came out at 51% in series [2], 115% in series [4] and 82% in series [10]. Moreover, the results for the Activity entry in series [5] and in series [11] were “Dose-dependent effect” and 65%, respectively. For the same compound, the Vd in series [6] was 0.9 L/kg. Further, the EC50 in series [7] was greater than 30000 nM; in series [9] it was 32 nM. Further, the half-life in series [8] is 13 h. The same compound displayed an AUC in [12] of 25.4 µM·h.

The values above are taken from ChEMBL document CHEMBL4402557, “Nidufexor (LMB763), a Novel FXR Modulator for the Treatment of Nonalcoholic Steatohepatitis” (J Med Chem, 2020).
